# In patent US9572787B2, “Inhibition of renal fibrosis” (Rhode Island Hospital, priority 2011, dated 2017):
# Columns and labels:
# NRK-49F cells = test: S3I-201 in cultured renal interstitial fibroblasts (immunoblot, qRT-PCR); format: cell-based, rat
# Experimental: Cell culture and treatments. NRK-49F cells were cultured in Dulbecco's modified eagle's medium (DMEM) (Sigma-Aldrich, St. Louis, Mo.) containing 10% fetal bovine serum (FBS), 0.5% penicillin and streptomycin in an atmosphere of 5% CO2 and 95% air at 37° C. Western blot analysis and Sirius red and immunofluorescent staining were carried out according to standard methods. Quantitative real-time PCR. Real time qRT-PCR amplifications were performed in 20 μl reactions. The amplification protocol was as follows: denaturation for 10 minutes and enzyme activation at 95° C., 40 cycles of 95° C.×10 sec, 59° C.×30 sec, and 72° C.×20 sec, followed by one step […] at 72° C. for 5 minutes. Relative mRNA abundance was determined from the ratios of specific mRNA to 18S ribosomal RNA measured in the same samples, and fold change was calculated relative to the group of sham-operated mice with vehicle treatment.
# obstructive kidney (UUO) = test: UUO model, daily S3I-201 treatment; format: in vivo, mouse; conditions: for STAT3 phosphorylation: 10 mg/kg i.p. daily
# Experimental: Unilateral […] obstruction (UUO) model and S3I-201 treatment. The UUO model was established in male C57 black mice that weighed 20-25 g (Jackson Laboratory, Bar Harbor, Me.) as described previously. The contralateral kidneys were used as controls. To examine the efficacy of S3I-201 in renal fibrosis after UUO injury, S3I-201 (10 mg/kg) in 50 μl of dimethyl sulfoxide (DMSO) was intraperitoneally administered to mice immediately after ureter ligation and then given daily for 6 or 13 days. Mice were randomized into 4 groups with 6-7 mice in each group as follows: (1) sham injury with DMSO as vehicle; (2) sham injury with S3I-201; (3) UUO injury with DMSO; (4) UUO injury with S3I-201.
# Western blot analysis and Sirius red and immunofluorescent staining were carried out according to standard methods.
# Quantitative real-time PCR. Real time qRT-PCR amplifications were performed in 20 μl reactions. The amplification protocol was as follows: denaturation for 10 minutes and enzyme activation at 95° C., 40 cycles of 95° C.×10 sec, 59° C.×30 sec, and 72° C.×20 sec, followed by one step […] at 72° C. for 5 minutes. Relative mRNA abundance was determined from the ratios of specific mRNA to 18S ribosomal RNA measured in the same samples, and fold change was calculated relative to the group of sham-operated mice with vehicle treatment.
# ELISA. Protein levels of TGF-β1, TNF-α, and IL-1β in kidney homogenates were determined using specific sandwich enzyme immunometric assay kits, ELISA Ready-SET-Go (eBioscience, Inc. San Diego, Calif.) as described previously. The results were normalized by total protein content in kidney homogenates.
# In situ TUNEL assays. Terminal deoxynucleotidyl transferase biotin-dUTP nick end-labeling (TUNEL) staining was used to detect DNA strand breaks using a detection kit, according to the instructions provided by the manufacturer. The number of TUNEL-positive nuclei per field was evaluated in five fields per section and five sections per kidney.
# [1] = dose- and time-dependent, 24 h dose series, 50 μM time course
structure (smiles),measurement,setting,value
Cc1ccc(S(=O)(=O)OCC(=O)Nc2ccc(C(=O)O)c(O)c2)cc1 [S3I-201],expression of p-STAT3,"NRK-49F cells; 100 μM, 3 h",complete inhibition
same,TGF-β1 mRNA expression,"NRK-49F cells; 5% FBS, 50 μM S3I-201, 6 h",significantly decreased
same,TβRII mRNA expression,"NRK-49F cells; 5% FBS, 50 μM S3I-201, 6 h",significantly decreased
same,TβRIII mRNA expression,"NRK-49F cells; 5% FBS, 50 μM S3I-201, 6 h",significantly decreased
same,expression of p-STAT1,"NRK-49F cells; 3 h, dose dependent",increased
same,STAT5 phosphorylation,"NRK-49F cells; 3 h, indicated concentrations",did not affect
same,expression of fibronectin,NRK-49F cells; [1],dramatically decreased
same,expression of α-SMA,NRK-49F cells; [1],dramatically decreased
same,apoptosis of interstitial cells (TUNEL),obstructive kidney (UUO); 10 mg/kg daily for 7 days,increased apoptosis
same,apoptosis of renal tubular cells (TUNEL),obstructive kidney (UUO); 10 mg/kg daily for 7 days,did not induce apoptosis
same,proliferation of interstitial cells (phospho-histone H3 Ser 10),obstructive kidney (UUO); 10 mg/kg daily for 7 days,decreased their proliferation
same,ICAM-1 mRNA expression,"obstructive kidney (UUO); 10 mg/kg daily, day 7",reduced
same,IL-1β mRNA expression,"obstructive kidney (UUO); 10 mg/kg daily, day 7",reduced
same,IL-1β protein (ELISA),"obstructive kidney (UUO); 10 mg/kg daily, day 7",significantly suppressed
same,Sirius red-positive areas,"obstructive kidney (UUO); 10 mg/kg daily, day 7",significantly reduced
same,TGF-β1 mRNA expression,"obstructive kidney (UUO); 10 mg/kg daily, day 7",reduced their levels
same,TGF-β1 protein (ELISA),"obstructive kidney (UUO); 10 mg/kg daily, day 7",decreased
same,TNF-α mRNA expression,"obstructive kidney (UUO); 10 mg/kg daily, day 7",reduced
same,TNF-α protein (ELISA),"obstructive kidney (UUO); 10 mg/kg daily, day 7",significantly suppressed
same,TβRI mRNA expression at the basal level,"obstructive kidney (UUO); 10 mg/kg daily, day 7",not affected
same,TβRII mRNA expression,"obstructive kidney (UUO); 10 mg/kg daily, day 7",reduced their levels
same,TβRIII mRNA basal level,"obstructive kidney (UUO); 10 mg/kg daily, day 7",reduced the basal level
same,UUO injury-induced MCP-1 mRNA expression,"obstructive kidney (UUO); 10 mg/kg daily, day 7",did not affect
same,UUO-induced collagen type 1 mRNA expression,"obstructive kidney (UUO); 10 mg/kg daily, day 7",attenuated this response
same,basal level of collagen type 1 expression in control kidneys,"obstructive kidney (UUO); 10 mg/kg daily, day 7",did not affect
same,basal level of α-SMA expression in control kidneys,"obstructive kidney (UUO); 10 mg/kg daily, day 7",did not affect
same,collagen type 1 expression in obstructive kidneys,"obstructive kidney (UUO); 10 mg/kg daily, day 7",decreased collagen type 1 to the basal level
same,"decrease in expression of ECM components (Sirius red, semi-quantitative)","obstructive kidney (UUO); 10 mg/kg daily, day 7",approximately 60%
same,expression of snail,"obstructive kidney (UUO); 10 mg/kg daily, day 7",did not affect
same,expression of β-catenin,"obstructive kidney (UUO); 10 mg/kg daily, day 7",did not affect
same,fibronectin expression (immunoblot densitometry),"obstructive kidney (UUO); 10 mg/kg daily, day 7",blocked
same,fibronectin expression (immunostaining),"obstructive kidney (UUO); 10 mg/kg daily, day 7",decreased its expression
same,leukocyte infiltration (naphthol AS-D chloroacetate esterase staining),"obstructive kidney (UUO); 10 mg/kg daily, day 7",reduced leukocyte infiltration to basal levels
same,α-SMA expression in obstructive kidneys,"obstructive kidney (UUO); 10 mg/kg daily, day 7",inhibited
same,total STAT3 expression,"obstructive kidney (UUO); 10 mg/kg daily, day 7 and day 14",not affected
same,collagen type 1 expression,"obstructive kidney (UUO); 10 mg/kg daily, day 14",decreased
same,α-SMA expression,"obstructive kidney (UUO); 10 mg/kg daily, day 14",decreased
same,STAT3 phosphorylation,obstructive kidney (UUO); day 7,largely suppressed
same,STAT3 phosphorylation,obstructive kidney (UUO); day 14,small inhibition
